{"source": "paper PMC10667816", "about": "“A Cell‐Penetrant Peptide Disrupting the Transcription Factor CP2c Complexes Induces Cancer‐Specific Synthetic Lethality” (Advanced Science, 2023)", "key": {"[1]": {"experiment": "Nanoparticle formation in solution (DLS)", "type": "physicochemical", "conditions": "DLS in saline, 25 °C, each sample analyzed five times", "procedure": "For determining the dimensions and nanoparticle formation of the peptides in solution, DLS analysis was performed using the Scatteroscope I nanoparticle size analyzer (K‐One, SOS1). Saline served as the negative control, and all experiments were conducted at a constant temperature of 25 °C. Each sample was analyzed five times, and the resulting data were graphically presented, incorporating all five profiles obtained from the experiments. The purity and dimer formation of the peptides were analyzed using HPLC and LC‐MS. HPLC analysis was carried out using a Shimadzu HPLC LabSolution equipped with a pump, an autosampler, a column oven, and a UV–vis detector. Chromatographic separation was performed on a Shimadzu C18 analytical column at 35 °C, with an injection volume of 20 µL (0.5 mg mL^−1). The mobile phases consisted of 0.05% trifluoroacetic acid (TFA) in water (A) and 0.05% TFA in acetonitrile (B). The flow rate was maintained at 1 mL min^−1, and the gradient program was as follows: 20–80% B over 30 min. Ionization was achieved using electrospray ionization (ESI) in positive mode with selected reaction monitoring (SRM). Mass spectrometry analysis was performed with an ESI source in the positive‐ionization mode."}, "[2]": {"tested_on": "A431 epidermoid carcinoma", "experiment": "A431 CDX mouse model", "type": "in vivo", "conditions": "intravenous injection every 2 or 3 days from day 14", "procedure": "Animal experiments were conducted in accordance with ethical guidelines, and all protocols were approved by the Institutional Animal Care and Use Committee under Hanyang University (approval numbers, 2014‐0016A, 2018‐0049A, 2018‐0207A, and 2019‐0169A), Chung‐Ang University (approval number, 2015‐00022), Chungbuk University (approval number, CBNUA‐1072‐17‐02), and Konkuk University (approval number, KU17130). To establish xenograft mice models, Hep3B, A431, U343, and PC9 cells were subcutaneously injected into the flank of Balb/c nude mice. For the MDA‐MB‐231 (LM1) cell line, it was implanted into the mammary fat pad of immunodeficient mice (NPG mice). […] Tumor volume was calculated using the formula of length × width^2)/2. […] The in vivo administration amount was determined based on the concentration of ACP52C confirmed at the cellular level, which was 2 µM. […] For ACP52C derivatives, the amount was adjusted to ensure a similar molar quantity of peptide injection, taking their molecular weights into account. For instance, in the case of ACP52CGK, ≈1.67 times the quantity was used compared to ACP52C to achieve an equivalent molar quantity. […] Hematoxylin and eosin (H&E)‐stained tissue sections were analyzed and photographed, and the representative histological images were recorded. […]"}, "CP2c": {"molecular_target": "T1, CP2c (Mus musculus, UniProt Q9ERA0)", "T1 construct": "extracts from iMEL cells (day 2); endogenous in cells; host or cells: nuclear extract of HMBA-induced MEL (iMEL) cells, day 2", "T1 sequence (Q9ERA0 whole entry)": "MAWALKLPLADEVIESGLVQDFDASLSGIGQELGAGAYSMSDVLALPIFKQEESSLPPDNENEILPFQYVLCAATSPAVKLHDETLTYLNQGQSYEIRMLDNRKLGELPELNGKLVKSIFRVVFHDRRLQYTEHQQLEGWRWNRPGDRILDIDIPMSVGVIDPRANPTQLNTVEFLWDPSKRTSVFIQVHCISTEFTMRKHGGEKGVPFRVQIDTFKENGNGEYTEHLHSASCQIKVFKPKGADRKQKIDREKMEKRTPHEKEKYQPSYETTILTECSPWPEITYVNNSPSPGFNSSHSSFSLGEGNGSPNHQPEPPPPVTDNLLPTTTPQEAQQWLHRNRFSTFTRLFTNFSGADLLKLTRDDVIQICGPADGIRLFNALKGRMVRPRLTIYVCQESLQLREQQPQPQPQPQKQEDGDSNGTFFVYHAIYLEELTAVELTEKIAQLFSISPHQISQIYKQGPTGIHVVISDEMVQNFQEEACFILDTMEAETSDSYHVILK", "experiment": "DNA‐IP assay of CP2c DNA binding", "type": "biochemical", "conditions": "0–3 µM peptide, concentration‐dependent", "procedure": "DNA‐IP assay was performed essentially as described previously.^[ [14] ^] Each of the oligonucleotides was mixed and annealed in the TEN buffer. For the radio‐labeling of the DNA probe, the annealed DNA was incubated with a mixture of dATP, dGTP, dTTP, [α^32P]‐dCTP, and Klenow enzyme in reaction buffer (5 mM NaCl, 1 mM Tris HCl, 1 mM MgCl2, and 0.1 mM DTT) for 30 min at 25 °C, and stopped by incubation with EDTA (10 mM final) for 20 min at 75 °C. The radio‐labeled DNA probe was purified by applying the reaction mixture to ProbeQuant G‐50 micro columns (GE healthcare, GE28‐9034‐08). Whole extracts prepared from transfecting 293T cells or purified GST fused CP2c proteins (wildtype and point mutants) were incubated with a [α^32P]‐labeled DNA probe in binding buffer (4% glycerol, 10 mM Tris‐HCl, pH 7.4, 1 mM DTT, 1 mM EDTA, and 0.1% NP‐40) for 15 min at room temperature. Then 0–3 µM of peptides (Pep #5, Pep #8, Pep #5‐1, Pep #5‐2, and Pep #5‐2C) were added to the DNA‐protein mixture, and the mixtures were incubated for 15 min at room temperature (peptide sequences are listed in Table S3, Supporting Information). For IP, precleared extracts were incubated overnight at 4 °C with 1 µg of the following primary antibodies (CP2c, CP2b, and PIAS1). […] The radioactivity of the eluted probe was measured by scintillation counting."}}, "note": "*1 amine or outer side, *2 acyl side, *3 side chain or, on linkers, in order; H or OH if unused. Where a SMILES comes first, the peptide text is derived from it. Side-chain parts run from the residue outwards. The star is where a group is joined. γGlu = O=C(O)[C@H](CCC(=O)[*:2])N[*:1]; Palmitoyl = CCCCCCCCCCCCCCCC(=O)*", "data": [{"smiles": "CC(=O)N[C@@H](CC(N)=O)C(=O)N[C@@H](Cc1ccc(O)cc1)C(=O)N1CCC[C@H]1C(=O)N[C@@H](CCC(N)=O)C(=O)N[C@@H](CCCNC(=N)N)C(=O)N1CCC[C@H]1C(=O)N[C@@H](CS)C(=O)N[C@@H](CCCNC(=N)N)C(=O)NCC(=O)N[C@@H](CC(=O)O)C(=O)N[C@@H](CCCCN)C(=O)NCC(=O)N1CCC[C@H]1C(=O)N[C@@H](CC(=O)O)C(=O)N[C@@H](CS)C(N)=O", "note": "[ACP52C] (Ac-NYPQRPCRGDKGPDC-NH2)", "values": [{"measurement": "nanoparticle formation", "setting": "[1]", "result": "majority of ACP52C exists in the form of nanoparticles in saline"}, {"measurement": "tumor weight", "setting": "[2]", "result": "significantly reduced tumor weight"}]}, {"smiles": "CCCCCCCCCCCCCCCC(=O)N[C@@H](CCC(=O)NCCCC[C@H](NC(=O)CNC(=O)CNC(=O)[C@@H]1CCCN1C(=O)[C@H](CCCNC(=N)N)NC(=O)[C@H](CCC(N)=O)NC(=O)[C@@H]1CCCN1C(=O)[C@H](Cc1ccc(O)cc1)NC(=O)[C@H](CC(N)=O)NC(C)=O)C(=O)NCC(=O)NCC(=O)N[C@@H](CS)C(=O)N[C@@H](CCCNC(=N)N)C(=O)NCC(=O)N[C@@H](CC(=O)O)C(=O)N[C@@H](CCCCN)C(=O)NCC(=O)N1CCC[C@H]1C(=O)N[C@@H](CC(=O)O)C(=O)N[C@@H](CS)C(N)=O)C(=O)O", "note": "[ACP52CGK] (Ac-NYPQRPGGK([γGlu-Palmitoyl])GGCRGDKGPDC-NH2)", "values": [{"measurement": "nanoparticle formation", "setting": "[1]", "result": "significant reduction in nanoparticle formation"}]}, {"smiles": "CCOc1ccccc1C1CC(=O)Nc2cc3c(cc21)OCO3", "note": "(stereo not shown) [FQI1, Factor Quinolinone Inhibitor 1, reference compound]", "values": [{"measurement": "inhibition of DNA binding activity of CP2c", "setting": "CP2c", "result": "proficient inhibition of DNA binding"}]}]}
